# System: 12 single or co-culture in vitro tissue models of primary cells
# Assay: Culture/co-culture cell model panel, extracellular biomarkers (DiscoveRx); as to CCL2/MCP-1: reference of the scale not given here; as to CXCL8/IL-8: reference of the scale not given here; as to CXCL9/MIG: reference of the scale not given here; as to IL-1alpha: reference of the scale not given here; as to M-CSF: reference of the scale not given here; as to PBMC Cytotoxicity: reference of the scale not given here; as to SRB: reference of the scale not given here; as to sTNF-alpha: reference of the scale not given here
# Format: cell-based, human
# Conditions: for B cell Proliferation / PBMC Cytotoxicity / Secreted IgG / sIL-2 / sIL-6 / sIL-17A / sIL-17F / sTNF-alpha: BT
# [1] = HDF3CGF stimulated fibroblasts, 1.00E0 nM
# [2] = HDF3CGF stimulated fibroblasts, 1.00E1 nM
# [3] = HDF3CGF stimulated fibroblasts, 1.00E2 nM
# [4] = HDF3CGF stimulated fibroblasts, 1.00E3 nM
structure (smiles),measurement,setting,value
CN1c2ccc(-c3cncc(Cl)c3N3CCC4(CC3)CNC(=O)O4)cc2CS1(=O)=O [CMPD2],SRB,"BENo, 1.00E3 nM",0.003
same,tPA,"BENo, 1.00E3 nM",0.049
same,uPA,"BENo, 1.00E3 nM",0.021
same,CCL26/Eotaxin-3,"BENo, 1.00E4 nM",0.048
same,CD54/ICAM-1,"BENo, 1.00E4 nM",-0.033
same,CD87/uPAR,"BENo, 1.00E4 nM",0.057
same,CXCL8/IL-8,"BENo, 1.00E4 nM",0.016
same,CXCL9/MIG,"BENo, 1.00E4 nM",0.075
same,CXCL10/IP-10,"BENo, 1.00E4 nM",0.073
same,CXCL11/I-TAC,"BENo, 1.00E4 nM",0.025
same,EGFR,"BENo, 1.00E4 nM",0.043
same,HLA-DR,"BENo, 1.00E4 nM",0.040
same,IL-1alpha,"BENo, 1.00E4 nM",-0.020
same,Keratin 8/18,"BENo, 1.00E4 nM",0.022
same,MMP-1,"BENo, 1.00E4 nM",0.039
same,MMP-9,"BENo, 1.00E4 nM",0.031
same,PAI-I,"BENo, 1.00E4 nM",-0.100
same,SRB,"BENo, 1.00E4 nM",0.001
same,tPA,"BENo, 1.00E4 nM",0.040
same,uPA,"BENo, 1.00E4 nM",-0.00475
same,CCL2/MCP-1,"BF4T, 1.00E0 nM",0.022
same,CCL26/Eotaxin-3,"BF4T, 1.00E0 nM",-0.032
same,CD54/ICAM-1,"BF4T, 1.00E0 nM",-0.00361
same,CD90,"BF4T, 1.00E0 nM",-0.036
same,CD106/VCAM-1,"BF4T, 1.00E0 nM",0.043
same,CXCL8/IL-8,"BF4T, 1.00E0 nM",0.040
same,IL-1alpha,"BF4T, 1.00E0 nM",0.007
same,Keratin 8/18,"BF4T, 1.00E0 nM",-0.001
same,MMP-1,"BF4T, 1.00E0 nM",0.030
same,MMP-3,"BF4T, 1.00E0 nM",0.082
same,MMP-9,"BF4T, 1.00E0 nM",0.039
same,PAI-I,"BF4T, 1.00E0 nM",-0.008
same,SRB,"BF4T, 1.00E0 nM",0.004
same,tPA,"BF4T, 1.00E0 nM",0.051
same,uPA,"BF4T, 1.00E0 nM",0.046
same,CCL2/MCP-1,"BF4T, 1.00E1 nM",-0.011
same,CCL26/Eotaxin-3,"BF4T, 1.00E1 nM",-0.107
same,CD54/ICAM-1,"BF4T, 1.00E1 nM",-0.027
same,CD90,"BF4T, 1.00E1 nM",-0.009
same,CD106/VCAM-1,"BF4T, 1.00E1 nM",0.033
same,CXCL8/IL-8,"BF4T, 1.00E1 nM",0.048
same,IL-1alpha,"BF4T, 1.00E1 nM",0.020
same,Keratin 8/18,"BF4T, 1.00E1 nM",-0.009
same,MMP-1,"BF4T, 1.00E1 nM",0.022
same,MMP-3,"BF4T, 1.00E1 nM",0.075
same,MMP-9,"BF4T, 1.00E1 nM",0.012
same,PAI-I,"BF4T, 1.00E1 nM",0.023
same,SRB,"BF4T, 1.00E1 nM",-0.00108
same,tPA,"BF4T, 1.00E1 nM",0.047
same,uPA,"BF4T, 1.00E1 nM",0.034
same,CCL2/MCP-1,"BF4T, 1.00E2 nM",-0.025
same,CCL26/Eotaxin-3,"BF4T, 1.00E2 nM",-0.086
same,CD54/ICAM-1,"BF4T, 1.00E2 nM",-0.020
same,CD90,"BF4T, 1.00E2 nM",0.002
same,CD106/VCAM-1,"BF4T, 1.00E2 nM",0.042
same,CXCL8/IL-8,"BF4T, 1.00E2 nM",0.050
same,IL-1alpha,"BF4T, 1.00E2 nM",0.00136
same,Keratin 8/18,"BF4T, 1.00E2 nM",0.009
same,MMP-1,"BF4T, 1.00E2 nM",0.008
same,MMP-3,"BF4T, 1.00E2 nM",0.053
same,MMP-9,"BF4T, 1.00E2 nM",0.008
same,PAI-I,"BF4T, 1.00E2 nM",0.039
same,SRB,"BF4T, 1.00E2 nM",4.82e-5
same,tPA,"BF4T, 1.00E2 nM",0.063
same,uPA,"BF4T, 1.00E2 nM",0.022
same,CCL2/MCP-1,"BF4T, 1.00E3 nM",-0.016
same,CCL26/Eotaxin-3,"BF4T, 1.00E3 nM",-0.102
same,CD54/ICAM-1,"BF4T, 1.00E3 nM",-0.022
same,CD90,"BF4T, 1.00E3 nM",-0.000476
same,CD106/VCAM-1,"BF4T, 1.00E3 nM",0.044
same,CXCL8/IL-8,"BF4T, 1.00E3 nM",0.047
same,IL-1alpha,"BF4T, 1.00E3 nM",-0.00456
same,Keratin 8/18,"BF4T, 1.00E3 nM",0.007
same,MMP-1,"BF4T, 1.00E3 nM",0.015
same,MMP-3,"BF4T, 1.00E3 nM",0.034
same,MMP-9,"BF4T, 1.00E3 nM",0.024
same,PAI-I,"BF4T, 1.00E3 nM",0.026
same,SRB,"BF4T, 1.00E3 nM",0.00277
same,tPA,"BF4T, 1.00E3 nM",0.071
same,uPA,"BF4T, 1.00E3 nM",0.023
same,CCL2/MCP-1,"BF4T, 1.00E4 nM",-0.034
same,CCL26/Eotaxin-3,"BF4T, 1.00E4 nM",-0.125
same,CD54/ICAM-1,"BF4T, 1.00E4 nM",-0.043
same,CD90,"BF4T, 1.00E4 nM",0.000654
same,CD106/VCAM-1,"BF4T, 1.00E4 nM",0.043
same,CXCL8/IL-8,"BF4T, 1.00E4 nM",0.030
same,IL-1alpha,"BF4T, 1.00E4 nM",-0.00143
same,Keratin 8/18,"BF4T, 1.00E4 nM",-0.023
same,MMP-1,"BF4T, 1.00E4 nM",0.010
same,MMP-3,"BF4T, 1.00E4 nM",0.027
same,MMP-9,"BF4T, 1.00E4 nM",-0.007
same,PAI-I,"BF4T, 1.00E4 nM",-0.013
same,SRB,"BF4T, 1.00E4 nM",0.000752
same,tPA,"BF4T, 1.00E4 nM",0.037
same,uPA,"BF4T, 1.00E4 nM",0.017
same,B cell Proliferation,1.00E0 nM,-0.010
same,PBMC Cytotoxicity,1.00E0 nM,0.032
same,Secreted IgG,1.00E0 nM,0.088
same,sIL-2,1.00E0 nM,0.154
same,sIL-6,1.00E0 nM,0.00536
same,sIL-17A,1.00E0 nM,-0.061
same,sIL-17F,1.00E0 nM,-0.213
same,sTNF-alpha,1.00E0 nM,0.097
same,B cell Proliferation,1.00E1 nM,-0.033
same,PBMC Cytotoxicity,1.00E1 nM,-0.030
same,Secreted IgG,1.00E1 nM,-0.163
same,sIL-2,1.00E1 nM,0.264
same,sIL-6,1.00E1 nM,0.057
same,sIL-17A,1.00E1 nM,0.173
same,sIL-17F,1.00E1 nM,-0.239
same,sTNF-alpha,1.00E1 nM,0.051
same,B cell Proliferation,1.00E2 nM,-0.057
same,PBMC Cytotoxicity,1.00E2 nM,-0.030
same,Secreted IgG,1.00E2 nM,-0.186
same,sIL-2,1.00E2 nM,0.109
same,sIL-6,1.00E2 nM,0.035
same,sIL-17A,1.00E2 nM,0.214
same,sIL-17F,1.00E2 nM,-0.485
same,sTNF-alpha,1.00E2 nM,0.059
same,B cell Proliferation,1.00E3 nM,-0.027
same,PBMC Cytotoxicity,1.00E3 nM,-0.033
same,Secreted IgG,1.00E3 nM,0.074
same,sIL-2,1.00E3 nM,0.068
same,sIL-6,1.00E3 nM,0.046
same,sIL-17A,1.00E3 nM,0.216
same,sIL-17F,1.00E3 nM,-0.463
same,sTNF-alpha,1.00E3 nM,0.076
same,B cell Proliferation,1.00E4 nM,-0.077
same,PBMC Cytotoxicity,1.00E4 nM,-0.046
same,Secreted IgG,1.00E4 nM,-0.114
same,sIL-2,1.00E4 nM,-0.00739
same,sIL-6,1.00E4 nM,-0.075
same,sIL-17A,1.00E4 nM,0.256
same,sIL-17F,1.00E4 nM,-0.594
same,sTNF-alpha,1.00E4 nM,0.009
same,CCL2/MCP-1,[1],-0.018
same,CD54/ICAM-1,[1],0.007
same,CD106/VCAM-1,[1],-0.010
same,CXCL8/IL-8,[1],-0.008
same,CXCL9/MIG,[1],-0.000757
same,CXCL10/IP-10,[1],0.037
same,CXCL11/I-TAC,[1],0.014
same,Collagen I,[1],0.035
same,Collagen III,[1],0.042
same,EGFR,[1],0.046
same,M-CSF,[1],-0.058
same,MMP-1,[1],0.070
same,PAI-I,[1],0.087
same,Proliferation_72hr,[1],-0.036
same,SRB,[1],0.000177
same,TIMP-1,[1],0.025
same,TIMP-2,[1],0.118
same,CCL2/MCP-1,[2],-0.070
same,CD54/ICAM-1,[2],-0.021
same,CD106/VCAM-1,[2],0.006
same,CXCL8/IL-8,[2],-0.045
same,CXCL9/MIG,[2],-0.030
same,CXCL10/IP-10,[2],0.050
same,CXCL11/I-TAC,[2],-0.011
same,Collagen I,[2],0.014
same,Collagen III,[2],0.091
same,EGFR,[2],-0.013
same,M-CSF,[2],-0.075
same,MMP-1,[2],0.050
same,PAI-I,[2],0.006
same,Proliferation_72hr,[2],-0.171
same,SRB,[2],-0.008
same,TIMP-1,[2],-0.010
same,TIMP-2,[2],0.117
same,CCL2/MCP-1,[3],-0.120
same,CD54/ICAM-1,[3],-0.051
same,CD106/VCAM-1,[3],0.051
same,CXCL8/IL-8,[3],-0.095
same,CXCL9/MIG,[3],-0.077
same,CXCL10/IP-10,[3],0.043
same,CXCL11/I-TAC,[3],-0.010
same,Collagen I,[3],0.00565
same,Collagen III,[3],0.086
same,EGFR,[3],-0.067
same,M-CSF,[3],-0.100
same,MMP-1,[3],0.024
same,PAI-I,[3],-0.00168
same,Proliferation_72hr,[3],-0.240
same,SRB,[3],0.000238
same,TIMP-1,[3],-0.059
same,TIMP-2,[3],0.121
same,CCL2/MCP-1,[4],-0.156
same,CD54/ICAM-1,[4],-0.066
same,CD106/VCAM-1,[4],0.036
same,CXCL8/IL-8,[4],-0.119
same,CXCL9/MIG,[4],-0.093
same,CXCL10/IP-10,[4],0.039
same,CXCL11/I-TAC,[4],-0.012
same,Collagen I,[4],0.040
same,Collagen III,[4],0.054

# Source: publication PMC5224920, “Assessing the mechanism and therapeutic potential of modulators of the human Mediator complex-associated protein kinases” (eLife, 2016)
